The test system of one data set is RSV Long strain. Nature of the data set: Virus cytopathic effect (CPE) assay, anti-RSV activity in HEp-2 cells. It counts as cell-based. Particulars: human respiratory syncytial virus, 96 h, RSV Long strain 0.5 MOI, CellTiter-Glo after 4 days. How it is done: HEp-2 cells (ATCC CCL-23, human laryngeal carcinoma epithelial cells) were purchased from American Type Culture Collection and the culture conditions were as follows: 1% double antibody was added to Dulbecco modified Eagle medium (DMEM) medium containing 10% fetal bovine serum (FBS), and maintained in a 5% CO2 incubator and cultured at 37° C. To evaluate the anti-RSV activity of compounds, cells were seeded in a 96-well plate at a density of 5×10^3 cells/well in Hyclone™ (DMEM) containing 10% fetal bovine serum (FBS). The following day, cells were infected with a 0.5 MOI of RSV Long strain (ATCC) in the presence of 3-fold serial dilutions of compound to a total volume of 100 μL per well. The cell viability was evaluated by the cell counting kit CellTiter-Glo Reagent after 4 days. The fluorescence signal was read on a multi-mode microplate reader and the 50% effective concentration EC50 was determined by the fluorescence value. The RSV inhibition activities of the compounds involved in Examples 1 to 15 disclosed herein were evaluated according to the above method, and the results are shown in Table 3 below.

The nature of data set [1]: Pharmacokinetics in ICR mice, plasma drug concentrations. It counts as in vivo. The following applies: for AUC(0-inf) / Cmax / Tmax / clearance / half-life / AUC(0-t) / Vd: ICR, mouse plasma; for AUC(0-t): read-out: AUC0-12; for Vd: read-out: Vss; for concentration at 0.083 h / concentration at 0.25 h / concentration at 0.5 h / concentration at 1 h / concentration at 2 h / concentration at 4 h / concentration at 8 h / concentration at 12 h / concentration at 24 h: mouse, plasma; for concentration at 0.083 h / concentration at 0.25 h / concentration at 0.5 h / concentration at 1 h / concentration at 2 h / concentration at 4 h / concentration at 8 h / concentration at 12 h / concentration at 24 h / F: ICR mice; for F: p.o. 10 mg/kg vs i.v. 2 mg/kg. The method, then: The pharmacokinetics were further tested of Example 4 and Example 7 disclosed herein and Example 61-1 (Comparative Example 1) in patent WO2013020993 in ICR mice. A single intravenous injection (dose of 2 mg/kg) and a single oral administration (dose of 10 mg/kg) were taken respectively. Blood collection point: before administration, 5 min, 15 min, 30 min, 1 h, 2 h, 4 h, 8 h, 12 h, 24 h after administration. The same method was applied to the pharmacokinetics of the above Comparative Example 1 in ICR mice, with a single intravenous injection (dose of 2 mg/kg) and a single oral administration (dose of 10 mg/kg) respectively.

Data set [2] deals with respiratory syncytial virus. Particulars: cited from earlier work.

The values below come from US12582661B2, “Synthesis and application of class of respiratory syncytial virus inhibitors” (SHANGHAI ARK BIOPHARMACEUTICAL CO., LTD., priority 2020, dated 2026).

Structures are written as SMILES. Like-named read-outs stand apart in the source and are kept apart here.

`Cc1ccc2nc(N3CCS(=O)(=O)c4ccccc4C3)nc(N3CC(CN)(CO)C3)c2c1` [Example 3, 4-(4-(3-(Aminomethyl)-3-(hydroxymethyl)azetidin-1-yl)-6-methylquinazolin-2-yl)-2,3,4,5-tetrahydrobenzo[f][1,4]thiazepine 1,1-dioxide] registered an IC50 in the data set on RSV Long strain of 5 nM.

Compound `NCC1(CO)CN(c2nc(N3CCS(=O)(=O)c4ccccc4C3)nc3ccc(C(F)F)cc23)C1` [Example 5, 4-(4-(3-(Aminomethyl)-3-(hydroxymethyl)azetidin-1-yl)-6-(difluoromethyl)quinazolin-2-yl)-2,3,4,5-tetrahydrobenzo[f][1,4]thiazepine 1,1-dioxide] gave an IC50 in the data set with RSV Long strain of 7.9 nM.

Turning to `Cc1ccc2nc(N3CCS(=O)(=O)c4ccccc4C3)nc(N3CC(N)(CN)C3)c2c1` [Example 13, 4-(4-(3-Amino-3-(aminomethyl)azetidin-1-yl)-6-methylquinazolin-2-yl)-2,3,4,5-tetrahydrobenzo[f][1,4]thiazepine 1,1-dioxide], in the data set with RSV Long strain, the IC50 worked out at 9.6 nM.

Compound `Cc1ccc2nc(N3CCS(=O)(=O)c4ccccc4C3)nc(N3CC(O)(CN)C3)c2c1` [Example 10, 4-(4-(3-(Aminomethyl)-3-hydroxyazetidin-1-yl)-6-methylquinazolin-2-yl)-2,3,4,5-tetrahydrobenzo[f][1,4]thiazepine 1,1-dioxide] returned an IC50 in the data set on RSV Long strain of 3.3 nM.

The compound `Cc1ccc2nc(N3CCS(=O)(=O)c4ccccc4C3)nc(N3CC(CN)C3)c2c1` [Example 11, 4-(4-(3-(Aminomethyl)azetidin-1-yl)-6-methylquinazolin-2-yl)-2,3,4,5-tetrahydrobenzo[f][1,4]thiazepine 1,1-dioxide] showed an IC50 in the data set on RSV Long strain of 1.2 nM.

In the data set on RSV Long strain, `Cc1ccc2nc(N3CCS(=O)(=O)c4ccccc4C3)nc(NCC3CNC3)c2c1` [Example 2, 4-(4-((Azetidin-3-ylmethyl)amino)-6-methylquinazolin-2-yl)-2,3,4,5-tetrahydrobenzo[f][1,4]thiazepine 1,1-dioxide] registered a half-inhibitory concentration (IC50) of 6.3 nM.

Turning to `O=S1(=O)CCN(c2nc(NC3CNC3)c3cc(C(F)F)ccc3n2)Cc2ccccc21` [Example 6, 4-(4-(Azetidin-3-ylamino)-6-(difluoromethyl)quinazolin-2-yl)-2,3,4,5-tetrahydrobenzo[f][1,4]thiazepine 1,1-dioxide], the IC50 with RSV Long strain turned out to be 4.9 nM.

The compound `Cc1ccc2nc(N3CCS(=O)(=O)c4ccccc4C3)nc(NC3CC4(CNC4)C3)c2c1` [Example 15, 4-(4-((2-azaspiro[3.3]heptan-6-yl)amino)-6-methylquinazolin-2-yl)-2,3,4,5-tetrahydrobenzo[f][1,4]thiazepine 1,1-dioxide] registered an IC50 with RSV Long strain of 3.7 nM.

Consider `Cc1ccc2nc(N3CCS(=O)(=O)c4ccccc4C3)nc(N[C@H]3CNC[C@@H]3O)c2c1` [Example 14, 4-(4-(((3S,4S)-4-hydroxypyrrolidin-3-yl)amino)-6-methylquinazolin-2-yl)-2,3,4,5-tetrahydrobenzo[f][1,4]thiazepine 1,1-dioxide], for which, in the data set with RSV Long strain, the midpoint of inhibition, the IC50, lay at 1.3 nM.

The compound `Cc1ccc2nc(N3CCS(=O)(=O)c4ccccc4C3)nc(NC3CC(N)C3)c2c1` (stereo not shown) [Example 12, 4-(4-((3-Aminocyclobutyl)amino)-6-methylquinazolin-2-yl)-2,3,4,5-tetrahydrobenzo[f][1,4]thiazepine 1,1-dioxide] returned an IC50 with RSV Long strain of 1.7 nM.

On to `NC1(CNc2nc(N3CCS(=O)(=O)c4ccccc4C3)nc3ccc(C(F)F)cc23)COC1` [Example 7, 4-(4-(((3-Aminooxetan-3-yl)methyl)amino)-6-(difluoromethyl)quinazolin-2-yl)-2,3,4,5-tetrahydrobenzo[f][1,4]thiazepine 1,1-dioxide], for which, in the data set with RSV Long strain, the IC50 came out at 4.1 nM. Further, in data set [1] (iv, i.v. 2 mg/kg), the AUC(0-inf) amounted to 579 ng·h/mL, the Cmax was 815 ng/mL, the Tmax was 0.08 h and the clearance is 57.6 mL/min/kg. Besides, in data set [1] (iv, i.v. 2 mg/kg), the half-life was 1.6 h, the AUC(0-t) was 573 ng·h/mL, the Vd was 3.33 L/kg and the concentration at 0.083 h is 815 ng/mL. In addition, in data set [1] (iv, i.v. 2 mg/kg), the concentration at 0.25 h amounted to 540 ng/mL, the concentration at 0.5 h stood at 335 ng/mL, the concentration at 1 h was determined as 128 ng/mL and the concentration at 2 h worked out at 35 ng/mL. In data set [1] (iv, i.v. 2 mg/kg), this compound returned a concentration at 4 h of 12.3 ng/mL, a concentration at 8 h of 2.7 ng/mL, a concentration at 12 h of 1.3 ng/mL and a concentration at 24 h of 1.5 ng/mL. Besides, in data set [1] (po, p.o. 10 mg/kg), the AUC(0-inf) came to 481 ng·h/mL, the Cmax worked out at 287 ng/mL, the Tmax was 0.5 h and the half-life is 1.3 h. For the same compound, in data set [1] (po, p.o. 10 mg/kg), the AUC(0-t) was determined as 476 ng·h/mL, the concentration at 0.083 h was found to be 233 ng/mL, the concentration at 0.25 h stood at 262 ng/mL and the concentration at 0.5 h worked out at 287 ng/mL. Moreover, in data set [1] (po, p.o. 10 mg/kg), the concentration at 1 h was found to be 180 ng/mL, the concentration at 2 h was 50.1 ng/mL, the concentration at 4 h is 16.7 ng/mL and the concentration at 8 h turned out to be 4.6 ng/mL. In data set [1] (po, p.o. 10 mg/kg), the concentration at 12 h is 2.9 ng/mL and the concentration at 24 h came out at 1.4 ng/mL. For the same compound, in data set [1], the F is on record as 16.62%.

As for `Cc1ccc2nc(N3CCS(=O)(=O)c4ccccc4C3)nc(NCC3(O)CNC3)c2c1` [Example 8, 4-(4-(((3-Hydroxyazetidin-3-yl)methyl)amino)-6-methylquinazolin-2-yl)-2,3,4,5-tetrahydrobenzo[f][1,4]thiazepine 1,1-dioxide], it took 2.9 nM to reach half-maximal inhibition with RSV Long strain (IC50).

The compound `Cc1ccc2nc(N3CCS(=O)(=O)c4ccccc4C3)nc(N3CC(N)C3)c2c1` [Example 1, 4-(4-(3-Aminoazetidin-1-yl)-6-methylquinazolin-2-yl)-2,3,4,5-tetrahydrobenzo[f][1,4]thiazepine 1,1-dioxide] returned an IC50 in the data set with RSV Long strain of 4.4 nM.

Regarding `NC1CN(c2nc(N3CCS(=O)(=O)c4ccccc4C3)nc3ccc(C(F)F)cc23)C1` [Example 4, 4-(4-(3-Aminoazetidin-1-yl)-6-(difluoromethyl)quinazolin-2-yl)-2,3,4,5-tetrahydrobenzo[f][1,4]thiazepine 1,1-dioxide], in the data set on RSV Long strain, the IC50 was determined as 7 nM. Also, in data set [1] (iv, i.v. 2 mg/kg), the AUC(0-inf) was 1010 ng·h/mL, the Cmax came to 82.4 ng/mL, the Tmax was determined as 4 h and the clearance is 32.8 mL/min/kg. In addition, in data set [1] (iv, i.v. 2 mg/kg), the half-life was 3.4 h, the AUC(0-t) amounted to 1010 ng·h/mL, the Vd came out at 13.1 L/kg and the concentration at 0.083 h stood at 38 ng/mL. Besides, in data set [1] (iv, i.v. 2 mg/kg), the concentration at 0.25 h is 38.4 ng/mL, the concentration at 0.5 h is 30.7 ng/mL, the concentration at 1 h turned out to be 34.5 ng/mL and the concentration at 2 h was 43.9 ng/mL. In data set [1] (iv, i.v. 2 mg/kg), this compound displayed a concentration at 4 h of 82.4 ng/mL, a concentration at 8 h of 62.8 ng/mL and a concentration at 24 h of 1.7 ng/mL. For the same compound, in data set [1] (po, p.o. 10 mg/kg), the AUC(0-inf) came to 3780 ng·h/mL, the Cmax stood at 505 ng/mL, the Tmax was determined as 2 h and the half-life is 3.3 h. In data set [1] (po, p.o. 10 mg/kg), the AUC(0-t) is 3760 ng·h/mL, the concentration at 0.083 h was 49.7 ng/mL, the concentration at 0.25 h was found to be 274 ng/mL and the concentration at 0.5 h came to 407 ng/mL. Further, in data set [1] (po, p.o. 10 mg/kg), the concentration at 1 h was found to be 432 ng/mL, the concentration at 2 h was 505 ng/mL, the concentration at 4 h amounted to 380 ng/mL and the concentration at 8 h turned out to be 128 ng/mL. The concentration at 24 h in data set [1] (po, p.o. 10 mg/kg) came to 5.4 ng/mL. Moreover, the F in data set [1] is 74.6%.

On to `CC(C)C(=O)OC[C@@]1(CCl)O[C@@H](n2ccc(N)nc2=O)[C@H](F)[C@@H]1OC(=O)C(C)C` [ALS-8176], for which the “volunteers with reduced respiratory syncytial virus load” value in data set [2] is listed as “more than 85%”.

On to `Cc1ccc2nc(N3CCS(=O)(=O)c4ccccc4C3)nc(N3CCC(O)(CN)C3)c2c1` (stereo not shown) [Example 9, 4-(4-(3-(Aminomethyl)-3-hydroxypyrrolidin-1-yl)-6-methylquinazolin-2-yl)-2,3,4,5-tetrahydrobenzo[f][1,4]thiazepine 1,1-dioxide], for which the IC50 in the data set on RSV Long strain amounted to 0.9 nM. This counts as sub-nanomolar.
